± gives the expanded uncertainty stated by the source.
Experiment: molar heat capacity at constant pressure
Conditions: 101.33 kPa, Small (less than 1 g) adiabatic calorimetry

Compound: CCC(=O)O[C@]1(C(=O)COC(C)=O)CC[C@H]2[C@@H]3C[C@H](C)C4=CC(=O)C=C[C@]4(C)[C@H]3[C@@H](O)C[C@@]21C [Methylprednisolone aceponate]
- molar heat capacity at constant pressure (5 K, Crystal 2): 1.87 ± 0.091 J/K/mol
- molar heat capacity at constant pressure (7.53 K, Crystal 2): 6.019 ± 0.26 J/K/mol
- molar heat capacity at constant pressure (7.84 K, Crystal 2): 6.56 ± 0.28 J/K/mol
- molar heat capacity at constant pressure (8.09 K, Crystal 2): 7.014 ± 0.3 J/K/mol
- molar heat capacity at constant pressure (8.41 K, Crystal 2): 7.67 ± 0.33 J/K/mol
- molar heat capacity at constant pressure (8.68 K, Crystal 2): 8.278 ± 0.35 J/K/mol
- molar heat capacity at constant pressure (9 K, Crystal 2): 8.893 ± 0.38 J/K/mol
- molar heat capacity at constant pressure (9.32 K, Crystal 2): 9.535 ± 0.4 J/K/mol
- molar heat capacity at constant pressure (9.64 K, Crystal 2): 10.2 ± 0.43 J/K/mol
- molar heat capacity at constant pressure (9.98 K, Crystal 2): 10.97 ± 0.46 J/K/mol
- molar heat capacity at constant pressure (10 K, Crystal 2): 11 ± 0.46 J/K/mol
- molar heat capacity at constant pressure (10.31 K, Crystal 2): 11.76 ± 0.49 J/K/mol
- molar heat capacity at constant pressure (10.64 K, Crystal 2): 12.47 ± 0.52 J/K/mol
- molar heat capacity at constant pressure (10.99 K, Crystal 2): 13.1 ± 0.55 J/K/mol
- molar heat capacity at constant pressure (11.33 K, Crystal 2): 13.78 ± 0.58 J/K/mol
- molar heat capacity at constant pressure (11.69 K, Crystal 2): 14.32 ± 0.6 J/K/mol
- molar heat capacity at constant pressure (12.05 K, Crystal 2): 15.03 ± 0.63 J/K/mol
- molar heat capacity at constant pressure (12.88 K, Crystal 2): 16.64 ± 0.69 J/K/mol
- molar heat capacity at constant pressure (14.18 K, Crystal 2): 19.38 ± 0.8 J/K/mol
- molar heat capacity at constant pressure (15 K, Crystal 2): 21.09 ± 0.87 J/K/mol
- molar heat capacity at constant pressure (15.44 K, Crystal 2): 22.08 ± 0.91 J/K/mol
- molar heat capacity at constant pressure (16.83 K, Crystal 2): 25.33 ± 1.1 J/K/mol
- molar heat capacity at constant pressure (18.19 K, Crystal 2): 28.78 ± 1.2 J/K/mol
- molar heat capacity at constant pressure (19.58 K, Crystal 2): 32.36 ± 1.3 J/K/mol
- molar heat capacity at constant pressure (20 K, Crystal 2): 33.51 ± 1.4 J/K/mol
- molar heat capacity at constant pressure (22.18 K, Crystal 2): 39.37 ± 0.51 J/K/mol
- molar heat capacity at constant pressure (25 K, Crystal 2): 47.69 ± 0.6 J/K/mol
- molar heat capacity at constant pressure (25.63 K, Crystal 2): 49.56 ± 0.61 J/K/mol
- molar heat capacity at constant pressure (29.09 K, Crystal 2): 59.46 ± 0.7 J/K/mol
- molar heat capacity at constant pressure (30 K, Crystal 2): 61.69 ± 0.68 J/K/mol
- molar heat capacity at constant pressure (32.6 K, Crystal 2): 68.53 ± 0.76 J/K/mol
- molar heat capacity at constant pressure (36.13 K, Crystal 2): 78.23 ± 0.86 J/K/mol
- molar heat capacity at constant pressure (39.68 K, Crystal 2): 88.41 ± 0.97 J/K/mol
- molar heat capacity at constant pressure (40 K, Crystal 2): 89.06 ± 0.97 J/K/mol
- molar heat capacity at constant pressure (43.24 K, Crystal 2): 97.8 ± 0.57 J/K/mol
- molar heat capacity at constant pressure (46.82 K, Crystal 2): 106.2 ± 0.6 J/K/mol
- molar heat capacity at constant pressure (50 K, Crystal 2): 115 ± 0.7 J/K/mol
- molar heat capacity at constant pressure (50.41 K, Crystal 2): 116.3 ± 0.7 J/K/mol
- molar heat capacity at constant pressure (54 K, Crystal 2): 126.6 ± 0.7 J/K/mol
- molar heat capacity at constant pressure (57.6 K, Crystal 2): 136 ± 0.8 J/K/mol
- molar heat capacity at constant pressure (60 K, Crystal 2): 142.6 ± 0.8 J/K/mol
- molar heat capacity at constant pressure (61.21 K, Crystal 2): 145.2 ± 0.8 J/K/mol
- molar heat capacity at constant pressure (64.82 K, Crystal 2): 155 ± 0.9 J/K/mol
- molar heat capacity at constant pressure (68.42 K, Crystal 2): 163.9 ± 0.9 J/K/mol
- molar heat capacity at constant pressure (70 K, Crystal 2): 167.5 ± 0.9 J/K/mol
- molar heat capacity at constant pressure (72.02 K, Crystal 2): 173 ± 1 J/K/mol
- molar heat capacity at constant pressure (75.66 K, Crystal 2): 181.2 ± 1 J/K/mol
- molar heat capacity at constant pressure (79.32 K, Crystal 2): 190.9 ± 1.1 J/K/mol
- molar heat capacity at constant pressure (80 K, Crystal 2): 193.1 ± 1.1 J/K/mol
- molar heat capacity at constant pressure (82.52 K, Crystal 2): 200.1 ± 1.1 J/K/mol
- molar heat capacity at constant pressure (82.95 K, Crystal 2): 200.9 ± 1.1 J/K/mol
- molar heat capacity at constant pressure (85.14 K, Crystal 2): 206.2 ± 1.2 J/K/mol
- molar heat capacity at constant pressure (86.58 K, Crystal 2): 209.8 ± 1.2 J/K/mol
- molar heat capacity at constant pressure (87.56 K, Crystal 2): 212.6 ± 1.2 J/K/mol
- molar heat capacity at constant pressure (89.97 K, Crystal 2): 218.2 ± 1.2 J/K/mol
- molar heat capacity at constant pressure (90 K, Crystal 2): 218.2 ± 1.2 J/K/mol
- molar heat capacity at constant pressure (92.39 K, Crystal 2): 223.5 ± 1.2 J/K/mol
- molar heat capacity at constant pressure (94.8 K, Crystal 2): 229 ± 1.2 J/K/mol
- molar heat capacity at constant pressure (97.21 K, Crystal 2): 234.8 ± 1.2 J/K/mol
- molar heat capacity at constant pressure (97.3 K, Crystal 2): 235.6 ± 1.2 J/K/mol
- molar heat capacity at constant pressure (99.62 K, Crystal 2): 240.5 ± 1.3 J/K/mol
- molar heat capacity at constant pressure (100 K, Crystal 2): 241.2 ± 1.3 J/K/mol
- molar heat capacity at constant pressure (100.7 K, Crystal 2): 243.6 ± 1.3 J/K/mol
- molar heat capacity at constant pressure (102.02 K, Crystal 2): 245.8 ± 1.3 J/K/mol
- molar heat capacity at constant pressure (104.08 K, Crystal 2): 251 ± 1.3 J/K/mol
- molar heat capacity at constant pressure (104.42 K, Crystal 2): 251.6 ± 1.3 J/K/mol
- molar heat capacity at constant pressure (106.93 K, Crystal 2): 257.8 ± 1.4 J/K/mol
- molar heat capacity at constant pressure (107.83 K, Crystal 2): 258.9 ± 1.4 J/K/mol
- molar heat capacity at constant pressure (109.22 K, Crystal 2): 263 ± 1.4 J/K/mol
- molar heat capacity at constant pressure (109.71 K, Crystal 2): 263.2 ± 1.4 J/K/mol
- molar heat capacity at constant pressure (110 K, Crystal 2): 264.5 ± 1.4 J/K/mol
- molar heat capacity at constant pressure (111.62 K, Crystal 2): 268.1 ± 1.4 J/K/mol
- molar heat capacity at constant pressure (112.99 K, Crystal 2): 270.3 ± 1.4 J/K/mol
- molar heat capacity at constant pressure (114.02 K, Crystal 2): 273.7 ± 1.4 J/K/mol
- molar heat capacity at constant pressure (116 K, Crystal 2): 277 ± 1.4 J/K/mol
- molar heat capacity at constant pressure (116.42 K, Crystal 2): 278.5 ± 1.5 J/K/mol
- molar heat capacity at constant pressure (118.81 K, Crystal 2): 283.7 ± 1.5 J/K/mol
- molar heat capacity at constant pressure (119.02 K, Crystal 2): 283.2 ± 1.5 J/K/mol
- molar heat capacity at constant pressure (120 K, Crystal 2): 286.4 ± 1.5 J/K/mol
- molar heat capacity at constant pressure (121.2 K, Crystal 2): 288.9 ± 1.5 J/K/mol
- molar heat capacity at constant pressure (122.04 K, Crystal 2): 290.1 ± 1.5 J/K/mol
- molar heat capacity at constant pressure (123.59 K, Crystal 2): 295.1 ± 1.5 J/K/mol
- molar heat capacity at constant pressure (125.06 K, Crystal 2): 297.7 ± 1.5 J/K/mol
- molar heat capacity at constant pressure (125.98 K, Crystal 2): 300 ± 1.6 J/K/mol
- molar heat capacity at constant pressure (128.08 K, Crystal 2): 305.6 ± 1.6 J/K/mol
- molar heat capacity at constant pressure (128.36 K, Crystal 2): 306 ± 1.6 J/K/mol
- molar heat capacity at constant pressure (130 K, Crystal 2): 309.4 ± 1.6 J/K/mol
- molar heat capacity at constant pressure (130.74 K, Crystal 2): 310.7 ± 1.6 J/K/mol
- molar heat capacity at constant pressure (131.09 K, Crystal 1): 312.1 ± 1.6 J/K/mol
- molar heat capacity at constant pressure (133.12 K, Crystal 1): 311.6 ± 1.6 J/K/mol
- molar heat capacity at constant pressure (134.11 K, Crystal 1): 310 ± 1.6 J/K/mol
- molar heat capacity at constant pressure (135.5 K, Crystal 1): 309.5 ± 1.6 J/K/mol
- molar heat capacity at constant pressure (137.13 K, Crystal 1): 310.6 ± 1.6 J/K/mol
- molar heat capacity at constant pressure (137.88 K, Crystal 1): 312.2 ± 1.6 J/K/mol
- molar heat capacity at constant pressure (140 K, Crystal 1): 315.4 ± 1.6 J/K/mol
- molar heat capacity at constant pressure (140.15 K, Crystal 1): 315.8 ± 1.6 J/K/mol
- molar heat capacity at constant pressure (140.25 K, Crystal 1): 315.6 ± 1.6 J/K/mol
- molar heat capacity at constant pressure (142.62 K, Crystal 1): 319.4 ± 1.7 J/K/mol
- molar heat capacity at constant pressure (143.15 K, Crystal 1): 320.6 ± 1.7 J/K/mol
- molar heat capacity at constant pressure (144.98 K, Crystal 1): 324.5 ± 1.7 J/K/mol
- molar heat capacity at constant pressure (146.15 K, Crystal 1): 326.3 ± 1.7 J/K/mol
- molar heat capacity at constant pressure (147.34 K, Crystal 1): 328.3 ± 1.7 J/K/mol
- molar heat capacity at constant pressure (149.14 K, Crystal 1): 331.8 ± 1.7 J/K/mol
- molar heat capacity at constant pressure (149.69 K, Crystal 1): 333.1 ± 1.7 J/K/mol
- molar heat capacity at constant pressure (150 K, Crystal 1): 333 ± 1.7 J/K/mol
- molar heat capacity at constant pressure (152.05 K, Crystal 1): 336.9 ± 1.7 J/K/mol
- molar heat capacity at constant pressure (152.14 K, Crystal 1): 336.7 ± 1.7 J/K/mol
- molar heat capacity at constant pressure (154.41 K, Crystal 1): 341 ± 1.8 J/K/mol
- molar heat capacity at constant pressure (155.13 K, Crystal 1): 342 ± 1.8 J/K/mol
- molar heat capacity at constant pressure (156.76 K, Crystal 1): 344 ± 1.8 J/K/mol
- molar heat capacity at constant pressure (158.09 K, Crystal 1): 347.4 ± 1.8 J/K/mol
- molar heat capacity at constant pressure (159.09 K, Crystal 1): 348.8 ± 1.8 J/K/mol
- molar heat capacity at constant pressure (160 K, Crystal 1): 351 ± 1.8 J/K/mol
- molar heat capacity at constant pressure (161.07 K, Crystal 1): 352.5 ± 1.8 J/K/mol
- molar heat capacity at constant pressure (161.43 K, Crystal 1): 353.5 ± 1.8 J/K/mol
- molar heat capacity at constant pressure (163.77 K, Crystal 1): 357.7 ± 1.8 J/K/mol
- molar heat capacity at constant pressure (164.05 K, Crystal 1): 358.2 ± 1.8 J/K/mol
- molar heat capacity at constant pressure (166.12 K, Crystal 1): 361.8 ± 1.9 J/K/mol
- molar heat capacity at constant pressure (167.01 K, Crystal 1): 363.8 ± 1.9 J/K/mol
- molar heat capacity at constant pressure (168.46 K, Crystal 1): 366.9 ± 1.9 J/K/mol
- molar heat capacity at constant pressure (169.98 K, Crystal 1): 368.9 ± 1.9 J/K/mol
- molar heat capacity at constant pressure (170 K, Crystal 1): 368.7 ± 1.9 J/K/mol
- molar heat capacity at constant pressure (170.8 K, Crystal 1): 371.1 ± 1.9 J/K/mol
- molar heat capacity at constant pressure (172.94 K, Crystal 1): 373.7 ± 1.9 J/K/mol
- molar heat capacity at constant pressure (173.13 K, Crystal 1): 375 ± 1.9 J/K/mol
- molar heat capacity at constant pressure (175.46 K, Crystal 1): 378.6 ± 1.9 J/K/mol
- molar heat capacity at constant pressure (175.89 K, Crystal 1): 379.5 ± 1.9 J/K/mol
- molar heat capacity at constant pressure (177.8 K, Crystal 1): 381 ± 2 J/K/mol
- molar heat capacity at constant pressure (178.84 K, Crystal 1): 383.9 ± 2 J/K/mol
- molar heat capacity at constant pressure (180 K, Crystal 1): 386.3 ± 2 J/K/mol
- molar heat capacity at constant pressure (180.1 K, Crystal 1): 385.2 ± 2 J/K/mol

From the NIST ThermoML archive (doi:10.1016/j.jct.2016.08.022)
